Assay results taken from US5985603A, “P2x receptor DNA and protein sequence” (Glaxo Group Limited, priority 1994, dated 1999).
Counter-ions that a name gives are not always drawn. Like-named read-outs stand apart in the source and are kept apart here. Values belong to the compound of their own block, whether it stands above or below them.

Key:
Format in all cases: cell-based
hP2X [1] = molecular target: T1, hP2X (Homo sapiens, UniProt P51575); experiment: inward currents evoked by purinoceptor agonists in Xenopus oocytes expressing hP2X; details: for relative potency: relative to ATP, from EEC50; for full agonist activity: concentration-response curves; for Emax at 100 µM: read-out: small inward current, % of the response to 100 μM ATP; for Emax: read-out: maximal response, % of the maximal ATP response
T1 construct: expressed in transfected cells; host or cells: Xenopus oocytes injected with in vitro transcribed RNA
T1 sequence (P51575 1-399): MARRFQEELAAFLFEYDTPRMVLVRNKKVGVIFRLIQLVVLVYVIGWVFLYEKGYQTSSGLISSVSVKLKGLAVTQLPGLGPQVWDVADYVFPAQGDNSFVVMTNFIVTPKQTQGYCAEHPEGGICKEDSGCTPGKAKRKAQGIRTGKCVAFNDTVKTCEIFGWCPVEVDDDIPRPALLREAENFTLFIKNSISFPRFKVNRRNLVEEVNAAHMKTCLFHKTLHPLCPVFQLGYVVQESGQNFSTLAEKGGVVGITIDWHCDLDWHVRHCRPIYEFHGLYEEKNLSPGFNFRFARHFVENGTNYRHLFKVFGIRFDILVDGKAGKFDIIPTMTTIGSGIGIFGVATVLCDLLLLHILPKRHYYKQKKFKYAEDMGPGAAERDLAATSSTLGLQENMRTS
Description: (§1) Human urinary bladder P2X cDNA, subcloned into the pBKCMV expression vector, was linearized with Notl, and transcribed in vitro with T3 polymerase in the presence of cap analogue m7G(5')ppp(5')G. Defolliculated Xenopus oocytes (Bertrand et al, Electrophysiology of neuronal nicotinic acetylcholine receptors expressed in Xenopus oocytes following nuclear injection of genes or cDNAs Meth Neurosci 4: 174-193 (1991)) were injected with 50 ng of human P2X in vitro transcribed RNA, and incubated at 18° C. for 2-6 days in the ND96 solution (mM): NaCl96, KCl2, MgCl2 1, CaCl2 2, sodium pyruvate 5, HEPES 5, ph 7.6-7.5, penicillin (10 U/ml), and streptomycin (10 μg/ml).
Oocytes were placed in a 1 ml chamber and superfused at 2-3 ml/min with ND96 solution with 0.1 mM BaCl2 replacing the 2 mM CaCl2 to prevent activation of endogenous calcium-activated chloride currents (Barish, A transient calcium-dependent chloride current in the immature Xenopus oocytes J Physiol 342: 309-325 (1983)). Currents were measured using a two-electrode voltage-clamp amplifier (Geneclamp Axon Instruments)at a holding potential of -60 mV. Microelectrodes were filled with 3 M KCl (0.5-2 M.OMEGA.). Data were collected using PClamp software (Axon Instruments). […] Antagonists were applied both in the superfusate and together with ATP in the U-tube solution.
Concentration response curves for purinoceptor agonists were fitted with a Hill slope of 1. […] Data are presented throughout as mean ± SEM for a given number of oocytes.

hP2X [2] = molecular target: T1, hP2X; experiment: antagonist inhibition of ATP-evoked currents in Xenopus oocytes expressing hP2X; details: for inhibition of inward currents evoked by 10 μM ATP: 10 μM ATP (approximately EC90); for reversibility of antagonism on washout: PPADS, P5P
Description: as §1
Oocytes were placed in a 1 ml chamber and superfused at 2-3 ml/min with ND96 solution with 0.1 mM BaCl2 replacing the 2 mM CaCl2 to prevent activation of endogenous calcium-activated chloride currents (Barish, A transient calcium-dependent chloride current in the immature Xenopus oocytes J Physiol 342: 309-325 (1983)). Currents were measured using a two-electrode voltage-clamp amplifier (Geneclamp Axon Instruments)at a holding potential of -60 mV. Microelectrodes were filled with 3 M KCl (0.5-2 M.OMEGA.). Data were collected using PClamp software (Axon Instruments). ATP and other purinoceptor agonists were applied by a U-tube perfusion system (Fenwick et al, A patch clamp study of bovine chromaffin cells and their sensitivity to acetylcholine J Physiol 331: 577-597 (1982)) placed close (200-500 μm) to the oocyte. […] Concentration response relationships to ATP and its analogs were determined by measuring the peak amplitude of responses to a 5 s application of agonist applied at 10 min intervals. Responses to agonists were normalized in each oocyte to the peak response evoked by 100 μM ATP; 100 μM ATP was usually applied at the beginning and at the end of an experiment to determine if there was any rundown of the response. […] Antagonists were applied both in the superfusate and together with ATP in the U-tube solution. Antagonists were superfused for 5-10 min prior to the application of ATP.
Concentration response curves for purinoceptor agonists were fitted with a Hill slope of 1. Equi-effective concentrations i.e. concentration of agonist, giving 50% of the response to 100 μM ATP, (EEC50) were determined from individual concentration response curves. […] Data are presented throughout as mean ± SEM for a given number of oocytes.

PC12 P2X receptor = molecular target: T2, PC12 P2X receptor (Rattus norvegicus, UniProt P49653); experiment: functional properties of cloned P2X receptors (electrical recordings): PC12
T2 construct: host or cells: HEK293 cells (oocytes are also named for the functional characterisation of clone 3)
T2 sequence (P49653 1-472): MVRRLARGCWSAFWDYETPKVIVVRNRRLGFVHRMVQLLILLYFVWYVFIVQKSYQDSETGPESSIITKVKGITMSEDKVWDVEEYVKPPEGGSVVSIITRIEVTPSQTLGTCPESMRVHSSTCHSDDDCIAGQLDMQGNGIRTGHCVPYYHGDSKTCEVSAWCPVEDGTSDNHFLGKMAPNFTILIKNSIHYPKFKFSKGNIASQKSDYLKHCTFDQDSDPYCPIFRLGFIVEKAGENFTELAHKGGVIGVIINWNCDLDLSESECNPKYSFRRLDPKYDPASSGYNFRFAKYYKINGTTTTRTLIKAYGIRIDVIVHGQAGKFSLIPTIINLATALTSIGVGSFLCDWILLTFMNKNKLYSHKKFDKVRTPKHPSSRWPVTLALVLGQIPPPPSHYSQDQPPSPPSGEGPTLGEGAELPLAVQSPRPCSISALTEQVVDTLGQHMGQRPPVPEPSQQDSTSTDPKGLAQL
Description: (§2) HEK 293 cells were transfected by the lipofectin method (Felgner et al., Proc. Nat'l. Acad. Sci. USA 84 7413-7417 (1987)) with P2X -plasmid. DNA concentration used was 1 mg/2 ml medium placed into a 35 mm petri dish containing four 11 mm diameter coverslips on which HEK cells were placed at 10,000 cells per coverslip. […] Currents were recorded from HEK 293 cells using whole-cell recording methods and the AXOPATCH™ 200 amplifier (Axon Instruments); patch pipettes (5 M.OMEGA.) contained (mM) Cs or K aspartate 140, NaCl 5, EGTA 11, HEPES 5. The external solution was (mM) NaCl 150, KCl2, CaCl2 2, MgCl2 1, HEPES 5 and glucose 11; the pH and osmolarity of both solutions were maintained at 7.3 and 305 mosmol/l respectively. All recordings performed at room temperature. Data acquisition and analysis were performed using pCLAMP™ and AXOGRAPH™ software (Axon Instruments). […] The pH and osmolarity of the solutions were 7.4 and 295 mosmol/l respectively. For single channel measurements, a […]™ 500 amplifier and outside-out recording methods were used (Adelman et al., Neuron 9 209-216 (1992)). Wax-coated patch pipettes (5-10 M.OMEGA.) contained (mM) K-gluconate 115, HEPES 5, BAPTA 5 and MgCl2 0.5, external solution was 96 mM NaCl, 2 mM KCl, 1.8 mM CaCl2, 1 mM MgCl2, 5 mM Hepes pH 7.6, and 5 mM sodium pyruvate.
(§3) The functional characterisation of the clone illustrated in FIG. 2 (referred to herein as clone 3) was carried out by electrical recordings from transfected HEK293 cells and from oocytes injected with the in vitro transcribed RNA, as described in Example 4 for the rat vas deferens P2X receptor. Table A summarizes the main properties of clone 3 as compared to those of rat vas/human bladder cDNA clone, and the PC12 cDNA clone (provided by David Julius and Tony Brake of the University of California at San Francisco).

[3] = molecular target: T3, rat superior cervical ganglion P2X receptor (clone 3) (Rattus norvegicus, UniProt P51577); experiment: functional properties of cloned P2X receptors (electrical recordings): clone 3; details: for antagonist profile, clone 3 (block): Table A, concentration not given; for sensitivity of ATP-activated currents to antagonism, compared with rat vas deferens/human bladder and PC12 forms: clone 3 (FIG. 15)
T3 construct: The insert appeared to be a full length cDNA; expressed in transfected cells; host or cells: HEK293 cells transfected with pcDNA3 construct p464 (also oocytes injected with in vitro transcribed RNA)
T3 sequence (P51577 1-388): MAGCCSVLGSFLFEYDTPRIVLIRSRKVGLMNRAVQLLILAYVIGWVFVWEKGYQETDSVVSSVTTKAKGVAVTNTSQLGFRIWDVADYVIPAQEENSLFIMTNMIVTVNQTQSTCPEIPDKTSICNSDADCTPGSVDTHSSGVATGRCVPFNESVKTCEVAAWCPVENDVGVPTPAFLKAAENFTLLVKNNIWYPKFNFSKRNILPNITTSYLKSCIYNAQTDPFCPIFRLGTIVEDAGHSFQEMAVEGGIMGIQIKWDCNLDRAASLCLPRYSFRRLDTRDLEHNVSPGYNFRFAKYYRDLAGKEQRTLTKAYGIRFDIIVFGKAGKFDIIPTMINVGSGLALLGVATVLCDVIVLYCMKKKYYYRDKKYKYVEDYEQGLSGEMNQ
Description: as §2, §3

Compound: Nc1nc(Cl)nc2c1ncn2[C@@H]1O[C@H](COP(=O)(O)OP(=O)(O)OP(=O)(O)O)[C@@H](O)[C@H]1O [2chloroATP, 2-chloro-ATP tetra sodium salt]
EC50 (hP2X [1]): 0.76 ± 0.1 µM
comparison of concentration-effect curves (hP2X [1]; ATP, 2MeSATP and 2-chloro-ATP): superimposable
full agonist activity (hP2X [1]): full agonists
relative potency (hP2X [1]): 1.08

Compound: Nc1ncnc2c1ncn2[C@@H]1O[C@H](COP(=O)([O-])OP(=O)([O-])[O-])[C@@H](O)[C@H]1O.[Na+].[Na+].[Na+] [ADP, adenosine 5'-diphosphate sodium salt]
EC50 (hP2X [1]): 34.3 ± 16 µM
full agonist activity (hP2X [1]): full agonists
relative potency (hP2X [1]): 0.024

Compound: Nc1ncnc2c1ncn2[C@@H]1O[C@H](COP(=O)(O)O)[C@@H](O)[C@H]1O [AMP, adenosine 5'-monophosphate sodium salt]
Emax at 100 µM (hP2X [1]): 6.08 ± 2%

Compound: Nc1ncnc2c1ncn2[C@@H]1O[C@H](COP(=O)(O)OP(=O)(O)OP(O)(O)=S)[C@@H](O)[C@H]1O [ATP-γ-S, adenosine 5'-O-(-3-thiophosphate) tetralithium salt]
EC50 (hP2X [1]): 10.6 ± 3.8 µM
Emax (hP2X [1]): ~65%
relative potency (hP2X [1]): 0.077

Compound: Nc1ncnc2c1ncn2[C@@H]1O[C@H](CO)[C@@H](O)[C@H]1O [Adenosine]
Emax at 100 µM (hP2X [1]): 2.3 ± 1.5%

Compound: O=c1ccn([C@@H]2O[C@H](COP(=O)(O)OP(=O)(O)OP(=O)(O)O)[C@@H](O)[C@H]2O)c(=O)[nH]1 [UTP, uridine 5'-triphosphate sodium salt]
Emax at 100 µM (hP2X [1]): 3.7 ± 1.8%

Compound: Nc1ncnc2c1ncn2[C@@H]1O[C@H](COP(=O)(O)OP(=O)(O)CP(=O)(O)O)[C@@H](O)[C@H]1O [d,β,γ-meATP, β,γ-methylene-D-ATP sodium salt]
EC50 (hP2X [1]): 24.1 ± 1.6 µM
relative potency (hP2X [1]): 0.034

Second part, led by results:

maximal response, % of the maximal ATP response (hP2X [1]): about 65%
EC50 (hP2X [1]; read-out: EEC50: equieffective concentration producing an inward current equivalent to 50% of the peak response to 100 μM ATP, Hill slope of 1, mean ± SEM, n = 3-4, ATP value from mean data from all experiments): 4.2 ± 2.2 µM
relative potency (hP2X [1]): 0.20
Compound: 2'-3'-O-(4-benzoylbenzol)ATP tetraethylamonium salt [BzATP]

EC50 (hP2X [1]): 2 ± 0.2 µM
Emax (hP2X [1]): ~65%
relative potency (hP2X [1]): 0.41
Compound: Nc1ncnc2c1ncn2[C@@H]1O[C@H](COP(=O)(O)OP(=O)(O)OP(=O)(O)OP(=O)(O)OP(=O)(O)OC[C@H]2O[C@@H](n3cnc4c(N)ncnc43)[C@H](O)[C@@H]2O)[C@@H](O)[C@H]1O [AP5A, p1, p5-di [adenosine-5'] pentaphosphate trilithium salt]

IC50 (hP2X [2]): ~1 µM
reversibility of inhibitory effects on washout (hP2X [2]; DIDS 100 μM): very slow to reverse on washout
IC50 (PC12 P2X receptor): > 100 µM
Compound: O=S(=O)(O)c1cc(N=C=S)ccc1C=Cc1ccc(N=C=S)cc1S(=O)(=O)O [DIDS, 4,4'-diisothiocyanatostilbene 2,2'-disulphonic acid, disodium salt]
inhibition of inward currents evoked by 10 μM ATP (hP2X [2]): inhibited inward currents evoked by 10 μM ATP

IC50 (hP2X [2]): ~20 µM
reversibility of antagonism on washout (hP2X [2]): readily reversible on washout
antagonist profile, clone 3 (block) [3]: < 40%
sensitivity of ATP-activated currents to antagonism, compared with rat vas deferens/human bladder and PC12 forms [3]: much less sensitive to antagonism
Compound: Cc1ncc(COP(=O)(O)O)c(C=O)c1O [P5 P, Pyridoxal 5-phosphate monohydrate]
inhibition of inward currents evoked by 10 μM ATP (hP2X [2]): inhibited inward currents evoked by 10 μM ATP

IC50 (hP2X [2]): ~1 µM
reversibility of antagonism on washout (hP2X [2]): readily reversible on washout
antagonist profile, clone 3 (block) [3]: < 30%
sensitivity of ATP-activated currents to antagonism, compared with rat vas deferens/human bladder and PC12 forms [3]: much less sensitive to antagonism
Compound: Cc1nc(N=Nc2ccc(S(=O)(=O)O)cc2S(=O)(=O)O)c(COP(=O)(O)O)c(C=O)c1O [PPADS, pyridoxal phosphate 6-azophenyl 2',4'-disulphonic acid]
inhibition of inward currents evoked by 10 μM ATP (hP2X [2]): inhibited inward currents evoked by 10 μM ATP
